According to US6576671B1, “Aminotetralin derivatives for the therapy of cardiovascular diseases” (Chiese Farmaceutici S.p.A., priority 1999, dated 2003):

Columns and labels:
α2 adrenergic receptors = experiment: α2 adrenergic receptor binding, [3H]-rauwolscine, rat cerebral cortex; conditions: rat cerebral cortex; read-out: IC50, 50% inhibition of [3H]-rauwolscine specific binding
Experimental: The affinity of CHF 1024 and CHF 1035 for α2, adrenergic receptors was tested on human platelets and on rat cerebral cortex.
The antagonist [^3H]-rauwolscine was used as marker of the receptor, being its binding reversible, saturable and specific.
Values are expressed as IC50=molar concentration of drug required for 50% inhibition of [^3H]-rauwolscine specific binding.

[1] = tested on: patients suffering from NYHA class II-III congestive heart failure; experiment: Add-on therapy study, 28 days, clinical condition and exercise capacity; assay type: in vivo, human
Experimental: The effects of CHF 1030 as added therapy have been evaluated in patients suffering from NYHA class II-III congestive heart failure due to mild hypertension, or coronary disease, or chronic cardiomyopathy who were on diuretics or diuretics and an angiotensin-converting enzyme inhibitor.
Recruited patients were randomly assigned to added double-blind treatment with placebo or with three different doses of the study drug (5 mg, 10 mg, 15 mg).
The study therapy was started by patients on day 1 and proceeded until day 28 of the study.
The following parameters have been considered to determine the clinical condition of patients:
The functional response to the treatments has been evaluated by exertional tests, the 6-minute walking test and the 130-meter walking test.
For the evaluation of clinical condition, more than 60 symptoms or signs were evaluated.
For statistical purposes scores from signs and symptoms (as applicable) were summed to form clinical compound scorings (CCSs) of pathophysiological importance in congestive heart failure.

IC50 (α2 adrenergic receptors): 2650 nM
duration of pharmacodynamic effects versus serum levels of the drug ([1]; patients with congestive heart failure): last longer than detectable serum levels
Compound: CNC1CCc2c(ccc(OC(=O)C(C)C)c2OC(=O)C(C)C)C1 (stereo not drawn) [CHF 1035, 5,6-Diisobutyroyloxy-2-methylaminotetralin]
functional and clinical condition of patients, compared to placebo ([1]; 5, 10, 15 mg add-on to diuretics or diuretics and ACE inhibitor, day 1 to 28): improved
